Reference: PubChem BioAssay AID1963874 (Molecular Pharmacology Branch, DTP, NCI, 2024)

System: 253994-281-T-J1-PDC KRAS-mutant spheroids with HUVEC/MSC, viability
Assay: Anticancer human tumor 253994-281-T-J1-PDC patient-derived colorectal carcinoma cell line growth inhibition [KRAS2]
Conditions: for IC50: curve of first compound; for viability, T/C: stronger effect = lower value
Outline: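 KRAS-mutant tumor cells were grown as spheroids with HUVEC endothelial cells and human MSCs as stroma. Targeted agents were tested alone and with KRAS pathway inhibitors. Doses started at or near clinical Cmax, or 10 microM, descending half-log.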

[1] = second compound 0.1 µM, first compound 0.0316 µM
[2] = second compound 0.1 µM, first compound 0.1 µM
[3] = second compound 0.1 µM, first compound 0.316 µM
[4] = second compound 0.1 µM, first compound 1 µM
[5] = second compound 0.1 µM, first compound 3.16 µM
[6] = second compound 0.316 µM, first compound 0.0316 µM
[7] = second compound 0.316 µM, first compound 0.1 µM
[8] = second compound 0.316 µM, first compound 0.316 µM
[9] = second compound 0.316 µM, first compound 1 µM
[10] = second compound 0.316 µM, first compound 3.16 µM
[11] = second compound 1 µM, first compound 0.0316 µM
[12] = second compound 1 µM, first compound 0.1 µM
[13] = second compound 1 µM, first compound 0.316 µM
[14] = second compound 1 µM, first compound 1 µM
[15] = second compound 1 µM, first compound 3.16 µM
[16] = second compound 3.16 µM, first compound 0.0316 µM
[17] = second compound 3.16 µM, first compound 0.1 µM
[18] = second compound 3.16 µM, first compound 0.316 µM
[19] = second compound 3.16 µM, first compound 1 µM
[20] = second compound 3.16 µM, first compound 3.16 µM
[21] = second compound 10 µM, first compound 0.0316 µM
[22] = second compound 10 µM, first compound 0.1 µM
[23] = second compound 10 µM, first compound 0.316 µM
[24] = second compound 10 µM, first compound 1 µM
[25] = second compound 10 µM, first compound 3.16 µM
[26] = second compound 0.1 µM, first compound 10 µM
[27] = second compound 0.316 µM, first compound 10 µM
[28] = second compound 1 µM, first compound 10 µM
[29] = second compound 3.16 µM, first compound 10 µM
[30] = second compound 10 µM, first compound 10 µM
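Further: spheroids exposed to agents for seven days before readout.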
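Wherever viability, T/C is given: percent of DMSO vehicle control viability.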

`CC1COCCN1c1cc(-c2ccnn2C)c2ccnc(-c3ccn[nH]3)c2n1` (stereo not given) + COc1cc2nc(C)nc(NC(C)c3cc(N)cc(C(F)(F)F)c3)c2cc1OC1CCOC1 was tested, and the IC50 (second compound 0.1 µM) was > 3160 nM, the IC50 (second compound 0.316 µM) was 169 nM and the IC50 (second compound 1 µM) was 151 nM. The IC50 (second compound 3.16 µM) was 99.6 nM, the IC50 (second compound 10 µM) was 96.2 nM and the viability, T/C (second compound 0.1 µM, first compound 0.01 µM) was 95.2%. The viability, T/C [1] was 72.8%, the viability, T/C [2] was 65.3% and the viability, T/C [3] was 47.9%. The viability, T/C [4] was 52.5%, the viability, T/C [5] was 55.1% and the viability, T/C (second compound 0.316 µM, first compound 0.01 µM) was 88.4%. It also gave a viability, T/C [6] of 83.2%, a viability, T/C [7] of 55.2% and a viability, T/C [8] of 39.1%. It also gave a viability, T/C [9] of 37.6%, a viability, T/C [10] of 55.6% and a viability, T/C (second compound 1 µM, first compound 0.01 µM) of 92.5%. The viability, T/C [11] was 74.8%, the viability, T/C [12] was 56.5% and the viability, T/C [13] was 35%. It also gave a viability, T/C [14] of 40.4%, a viability, T/C [15] of 54.5% and a viability, T/C (second compound 3.16 µM, first compound 0.01 µM) of 80.6%. The viability, T/C [16] was 82.5%, the viability, T/C [17] was 49.9% and the viability, T/C [18] was 37.2%. The viability, T/C [19] was 39%, the viability, T/C [20] was 49.2% and the viability, T/C (second compound 10 µM, first compound 0.01 µM) was 75.7%. It also gave a viability, T/C [21] of 74.6%, a viability, T/C [22] of 49.2% and a viability, T/C [23] of 31.8%. It also gave a viability, T/C [24] of 41% and a viability, T/C [25] of 42.4%.
With `CC1OCC2(CCN(c3cnc(Sc4ccnc(N)c4Cl)c(N)n3)CC2)C1N` (stereo not given) + COc1cc2nc(C)nc(NC(C)c3cc(N)cc(C(F)(F)F)c3)c2cc1OC1CCOC1 the IC50 (second compound 0.1 µM) was > 10000 nM, the IC50 (second compound 0.316 µM) was 9310 nM and the IC50 (second compound 1 µM) was 7650 nM. For the same molecule, the IC50 (second compound 3.16 µM) was > 10000 nM, the IC50 (second compound 10 µM) was 3310 nM and the viability, T/C [1] was 110%. It also gave a viability, T/C [2] of 86.2%, a viability, T/C [3] of 91.9% and a viability, T/C [4] of 74.5%. It also gave a viability, T/C [5] of 68%, a viability, T/C [26] of 48% and a viability, T/C [6] of 87.5%. It also gave a viability, T/C [7] of 87.6%, a viability, T/C [8] of 81.6% and a viability, T/C [9] of 68%. The viability, T/C [10] was 58.8%, the viability, T/C [27] was 48.9% and the viability, T/C [11] was 101%. For the same molecule, the viability, T/C [12] was 91.2%, the viability, T/C [13] was 78.5% and the viability, T/C [14] was 74.7%. It also gave a viability, T/C [15] of 58.8%, a viability, T/C [28] of 46.8% and a viability, T/C [16] of 83.6%. The viability, T/C [17] was 87.1%, the viability, T/C [18] was 90.6% and the viability, T/C [19] was 78%. The viability, T/C [20] was 71.1%, the viability, T/C [29] was 52.3% and the viability, T/C [21] was 79.2%. The viability, T/C [22] was 93.1%, the viability, T/C [23] was 67.2% and the viability, T/C [24] was 64.2%. For the same molecule, the viability, T/C [25] was 54.4% and the viability, T/C [30] was 26.8%.
With `Cn1nccc1Nc1nccc(-c2cc3c(s2)C(C)(C)N(CCN2CCOCC2)C3=O)n1` + COc1cc2nc(C)nc(NC(C)c3cc(N)cc(C(F)(F)F)c3)c2cc1OC1CCOC1 the IC50 (second compound 0.1 µM) was 1100 nM, the IC50 (second compound 0.316 µM) was 850 nM and the IC50 (second compound 1 µM) was 753 nM. The IC50 (second compound 3.16 µM) was 507 nM, the IC50 (second compound 10 µM) was 340 nM and the viability, T/C [1] was 107%. The viability, T/C [2] was 89.5%, the viability, T/C [3] was 85.2% and the viability, T/C [4] was 52.4%. It also gave a viability, T/C [5] of 24.8%, a viability, T/C [26] of 19.6% and a viability, T/C [6] of 92%. It also gave a viability, T/C [7] of 96.6%, a viability, T/C [8] of 78% and a viability, T/C [9] of 45.9%. It also gave a viability, T/C [10] of 22.8%, a viability, T/C [27] of 19% and a viability, T/C [11] of 92.3%. For the same molecule, the viability, T/C [12] was 92.1%, the viability, T/C [13] was 72.9% and the viability, T/C [14] was 41.5%. For the same molecule, the viability, T/C [15] was 27%, the viability, T/C [28] was 17.9% and the viability, T/C [16] was 96.5%. The viability, T/C [17] was 77.5%, the viability, T/C [18] was 62% and the viability, T/C [19] was 36.9%. The viability, T/C [20] was 18.3%, the viability, T/C [29] was 14.2% and the viability, T/C [21] was 78.7%. For the same molecule, the viability, T/C [22] was 68.8%, the viability, T/C [23] was 54% and the viability, T/C [24] was 16.9%. It also gave a viability, T/C [25] of 7.12% and a viability, T/C [30] of 2.36%.
